In patent US9833497B2, “Human originated EGF domain proteins and use of the same” (CHENGDU SOURCEBIO LIMITED-LIABILITY COMPANY, priority 2013, dated 2017):

Experiments:
Assay type in all cases: cell-based
E. coli BL21 = assay: MIC against Gram-negative bacteria: E. coli BL21; settings: E. coli BL21
Outline: (§1)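 The recombinant human-originated EGF domain proteins were serially diluted two-fold against bacteria at 5×10^5 CFU/mL in LB medium. After shaken incubation at 37° C, the lowest concentration with no bacterial growth was recorded as the MIC.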

Serratia marcescens = assay: MIC against Gram-negative bacteria: Serratia marcescens; settings: for MIC (μg/mL) S. marcescens / MIC: S. marcescens; for MIC against S. marcescens: Serratia marcescens
Outline: as §1

Proteus vulgaris = assay: MIC against Gram-negative bacteria: Proteus vulgaris; settings: for MIC (μg/mL) P. vulgaris / MIC: P. vulgaris; for MIC against P. vulgaris: Proteus vulgaris
Outline: as §1

Pseudomonas aeruginosa = assay: MIC against Gram-negative bacteria: Pseudomonas aeruginosa; settings: for MIC (μg/mL) P. aeruginosa / MIC: P. aeruginosa; for MIC against P. aeruginosa: Pseudomonas aeruginosa
Outline: as §1

Proteus mirabilis = assay: MIC against Gram-negative bacteria: Proteus mirabilis; settings: for MIC (μg/mL) P. mirabilis / MIC: P. mirabilis; for MIC against P. mirabilis: Proteus mirabilis
Outline: as §1

E. coli DH5α = assay: Antibacterial activity: MIC and growth curve against E. coli DH5α in 96-well plate; settings: minimal inhibitory concentration against E. coli DH5α; 96-well plate, 5×10^5 CFU/mL, 37° C., judged after 8 h
Outline: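 MIC taken as lowest protein level with no bacterial growth, tracked by A600 every 30 min during 37 °C, 175 rpm culture. Two-fold protein series 50-12.5 μg/mL final, triplicate wells, against 5×10^5 CFU/mL of LB-washed mid-log cells.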

Moraxella catarrhalis = assay: MIC against Gram-negative bacteria: Moraxella catarrhalis; settings: for MIC (μg/mL) M. catarrhalis / MIC: M. catarrhalis; for MIC against M. catarrhalis: Moraxella catarrhalis
Outline: as §1

Enterobacter cloacae = assay: MIC against Gram-negative bacteria: Enterobacter cloacae; settings: for MIC (μg/mL) E. cloacae / MIC: E. cloacae; for MIC against E. cloacae: Enterobacter cloacae
Outline: as §1

Aeromonas hydrophila = assay: MIC against Gram-negative bacteria: Aeromonas hydrophila; settings: for MIC (μg/mL) A. hydrophila / MIC: A. hydrophila; for MIC against A. hydrophila: Aeromonas hydrophila
Outline: as §1

Citrobacter diversus = assay: MIC against Gram-negative bacteria: Citrobacter diversus; settings: for MIC (μg/mL) C. diversus / MIC: C. diversus; for MIC against C. diversus: Citrobacter diversus
Outline: as §1

Klebsiella pneumonia = assay: MIC against Gram-negative bacteria: Klebsiella pneumonia; settings: for MIC (μg/mL) K. pneumonia / MIC: K. pneumonia; for MIC against K. pneumonia: Klebsiella pneumonia
Outline: as §1

[1] = 10 h cultivation at 37° C., 5×10^5 CFU/mL
[2] = 96-well plate, 5×10^5 CFU/mL, 37° C., 10 h
[3] = 5×10^5 CFU/mL, 10 h cultivation at 37° C.

PRT761 (RKDVCQAIDHGCEHICVNSDDSYTCECLEGFRLAEDGKRCR; listed as Homo sapiens)
MIC (μg/mL) E. coli BL21 (E. coli BL21; [1]): 12.5 µg/mL | MIC (μg/mL) S. marcescens (Serratia marcescens; [1]): 25 µg/mL | MIC (μg/mL) P. vulgaris (Proteus vulgaris; [1]): 12.5 µg/mL | MIC (μg/mL) P. aeruginosa (Pseudomonas aeruginosa; [1]): 50 µg/mL | MIC (μg/mL) P. mirabilis (Proteus mirabilis; [1]): 50 µg/mL | MIC (E. coli DH5α): 50 µg/mL | MIC (μg/mL) M. catarrhalis (Moraxella catarrhalis; [1]): 25 µg/mL | MIC (μg/mL) E. cloacae (Enterobacter cloacae; [1]): 50 µg/mL | MIC (μg/mL) A. hydrophila (Aeromonas hydrophila; [1]): 25 µg/mL | MIC (μg/mL) C. diversus (Citrobacter diversus; [1]): 12.5 µg/mL | MIC (μg/mL) K. pneumonia (Klebsiella pneumonia; [1]): 12.5 µg/mL

PRT902 (DIDDCRPNPCHNGGSCTDGINTAFCDCLPGFRGTFCE; listed as Homo sapiens)
MIC (E. coli BL21; 10 h cultivation at 37° C.): 25 µg/mL | MIC (Serratia marcescens; 10 h cultivation at 37° C.): 50 µg/mL | MIC (Proteus vulgaris; 10 h cultivation at 37° C.): 25 µg/mL | MIC (Pseudomonas aeruginosa; 10 h cultivation at 37° C.): 12.5 µg/mL | MIC (Proteus mirabilis; 10 h cultivation at 37° C.): 12.5 µg/mL | MIC (E. coli DH5α): 50 µg/mL | MIC (Moraxella catarrhalis; 10 h cultivation at 37° C.): 25 µg/mL | MIC (Enterobacter cloacae; 10 h cultivation at 37° C.): 50 µg/mL | MIC (Aeromonas hydrophila; 10 h cultivation at 37° C.): 12.5 µg/mL | MIC (Citrobacter diversus; 10 h cultivation at 37° C.): 50 µg/mL | MIC (Klebsiella pneumonia; 10 h cultivation at 37° C.): 25 µg/mL

PRT1307 (HECPGGAETPCNGHGTCLDGMDRNGTCVCQENFRGSACQ; listed as Homo sapiens)
MIC against E. coli BL21 (E. coli BL21; [2]): 50 µg/mL | MIC against S. marcescens (Serratia marcescens; [2]): 25 µg/mL | MIC against P. vulgaris (Proteus vulgaris; [2]): 12.5 µg/mL | MIC against P. aeruginosa (Pseudomonas aeruginosa; [2]): 12.5 µg/mL | MIC against P. mirabilis (Proteus mirabilis; [2]): 25 µg/mL | MIC (E. coli DH5α): 12.5 µg/mL | MIC against M. catarrhalis (Moraxella catarrhalis; [2]): 50 µg/mL | MIC against E. cloacae (Enterobacter cloacae; [2]): 100 µg/mL | MIC against A. hydrophila (Aeromonas hydrophila; [2]): 50 µg/mL | MIC against C. diversus (Citrobacter diversus; [2]): 12.5 µg/mL | MIC against K. pneumonia (Klebsiella pneumonia; [2]): 50 µg/mL

PRT1451 (EARWCSECHSNATCTEDEAVTTCTCQEGFTGDGLTCV; listed as Homo sapiens)
MIC against E. coli BL21 (E. coli BL21; [3]): 12.5 µg/mL | MIC against S. marcescens (Serratia marcescens; [3]): 12.5 µg/mL | MIC against P. vulgaris (Proteus vulgaris; [3]): 12.5 µg/mL | MIC against P. aeruginosa (Pseudomonas aeruginosa; [3]): 25 µg/mL | MIC against P. mirabilis (Proteus mirabilis; [3]): 12.5 µg/mL | MIC (E. coli DH5α): 25 µg/mL | MIC against M. catarrhalis (Moraxella catarrhalis; [3]): 12.5 µg/mL | MIC against E. cloacae (Enterobacter cloacae; [3]): 25 µg/mL | MIC against A. hydrophila (Aeromonas hydrophila; [3]): 12.5 µg/mL | MIC against C. diversus (Citrobacter diversus; [3]): 25 µg/mL | MIC against K. pneumonia (Klebsiella pneumonia; [3]): 12.5 µg/mL

PRT218 (DINECDASNQCAQQCYNILGSFICQCNQGYELSSDRLNCE; listed as Homo sapiens)
MIC (μg/mL) E. coli BL21 (E. coli BL21; [1]): 50 µg/mL | MIC (μg/mL) S. marcescens (Serratia marcescens; [1]): 25 µg/mL | MIC (μg/mL) P. vulgaris (Proteus vulgaris; [1]): 50 µg/mL | MIC (μg/mL) P. aeruginosa (Pseudomonas aeruginosa; [1]): 50 µg/mL | MIC (μg/mL) P. mirabilis (Proteus mirabilis; [1]): 25 µg/mL | MIC (E. coli DH5α): 100 µg/mL | MIC (μg/mL) M. catarrhalis (Moraxella catarrhalis; [1]): 50 µg/mL | MIC (μg/mL) E. cloacae (Enterobacter cloacae; [1]): 25 µg/mL | MIC (μg/mL) A. hydrophila (Aeromonas hydrophila; [1]): 12.5 µg/mL | MIC (μg/mL) C. diversus (Citrobacter diversus; [1]): 25 µg/mL | MIC (μg/mL) K. pneumonia (Klebsiella pneumonia; [1]): 50 µg/mL

PRT754 (IQDLCAMEDHNCEQLCVNVPGSFVCQCYSGYALAEDGKRCV; listed as Homo sapiens)
MIC (μg/mL) E. coli BL21 (E. coli BL21; [1]): 12.5 µg/mL | MIC (μg/mL) S. marcescens (Serratia marcescens; [1]): 25 µg/mL | MIC (μg/mL) P. vulgaris (Proteus vulgaris; [1]): 50 µg/mL | MIC (μg/mL) P. aeruginosa (Pseudomonas aeruginosa; [1]): 50 µg/mL | MIC (μg/mL) P. mirabilis (Proteus mirabilis; [1]): 12.5 µg/mL | MIC (E. coli DH5α): 25 µg/mL | MIC (μg/mL) M. catarrhalis (Moraxella catarrhalis; [1]): 25 µg/mL | MIC (μg/mL) E. cloacae (Enterobacter cloacae; [1]): 12.5 µg/mL | MIC (μg/mL) A. hydrophila (Aeromonas hydrophila; [1]): 25 µg/mL | MIC (μg/mL) C. diversus (Citrobacter diversus; [1]): 50 µg/mL | MIC (μg/mL) K. pneumonia (Klebsiella pneumonia; [1]): 25 µg/mL

PRT1486 (TVKSCDCLNGGSCVSDRNFSPGSGVYLCVCLPGFHGSLCE; listed as Homo sapiens)
MIC against E. coli BL21 (E. coli BL21; [3]): 12.5 µg/mL | MIC against S. marcescens (Serratia marcescens; [3]): 12.5 µg/mL | MIC against P. vulgaris (Proteus vulgaris; [3]): 12.5 µg/mL | MIC against P. aeruginosa (Pseudomonas aeruginosa; [3]): 25 µg/mL | MIC against P. mirabilis (Proteus mirabilis; [3]): 12.5 µg/mL | MIC (E. coli DH5α): 12.5 µg/mL | MIC against M. catarrhalis (Moraxella catarrhalis; [3]): 25 µg/mL | MIC against E. cloacae (Enterobacter cloacae; [3]): 12.5 µg/mL | MIC against A. hydrophila (Aeromonas hydrophila; [3]): 25 µg/mL | MIC against C. diversus (Citrobacter diversus; [3]): 12.5 µg/mL | MIC against K. pneumonia (Klebsiella pneumonia; [3]): 25 µg/mL

PRT413 (DVNECITGSHSCRLGESCINTVGSFRCQRDSSCGTGYELTEDNSCK; listed as Homo sapiens)
MIC (E. coli BL21; [1]): 12.5 µg/mL | MIC (Serratia marcescens; [1]): 12.5 µg/mL | MIC (Proteus vulgaris; [1]): 12.5 µg/mL | MIC (Pseudomonas aeruginosa; [1]): 12.5 µg/mL | MIC (Proteus mirabilis; [1]): 12.5 µg/mL | MIC (E. coli DH5α): 12.5 µg/mL | MIC (Moraxella catarrhalis; [1]): 50 µg/mL | MIC (Enterobacter cloacae; [1]): 12.5 µg/mL | MIC (Aeromonas hydrophila; [1]): 50 µg/mL | MIC (Citrobacter diversus; [1]): 12.5 µg/mL | MIC (Klebsiella pneumonia; [1]): 50 µg/mL

PRT1388 (RDSCPVLCGGNGEYEKGHCVCRHGWKGPECDV; listed as Homo sapiens)
MIC against E. coli BL21 (E. coli BL21; [3]): 12.5 µg/mL | MIC against S. marcescens (Serratia marcescens; [3]): 12.5 µg/mL | MIC against P. vulgaris (Proteus vulgaris; [3]): 12.5 µg/mL | MIC against P. aeruginosa (Pseudomonas aeruginosa; [3]): 12.5 µg/mL | MIC against P. mirabilis (Proteus mirabilis; [3]): 12.5 µg/mL | MIC (E. coli DH5α): 100 µg/mL | MIC against M. catarrhalis (Moraxella catarrhalis; [3]): 25 µg/mL | MIC against E. cloacae (Enterobacter cloacae; [3]): 12.5 µg/mL | MIC against A. hydrophila (Aeromonas hydrophila; [3]): 25 µg/mL | MIC against C. diversus (Citrobacter diversus; [3]): 12.5 µg/mL | MIC against K. pneumonia (Klebsiella pneumonia; [3]): 12.5 µg/mL

PRT976 (IGVRLEQLCQAGGQCVDEDSSHYCVCPEGRTGSHCE; listed as Homo sapiens)
MIC (E. coli BL21; 10 h cultivation at 37° C.): 12.5 µg/mL | MIC (Serratia marcescens; 10 h cultivation at 37° C.): 25 µg/mL | MIC (Proteus vulgaris; 10 h cultivation at 37° C.): 25 µg/mL | MIC (Pseudomonas aeruginosa; 10 h cultivation at 37° C.): 50 µg/mL | MIC (Proteus mirabilis; 10 h cultivation at 37° C.): 50 µg/mL | MIC (E. coli DH5α): 50 µg/mL | MIC (Moraxella catarrhalis; 10 h cultivation at 37° C.): 25 µg/mL | MIC (Enterobacter cloacae; 10 h cultivation at 37° C.): 50 µg/mL | MIC (Aeromonas hydrophila; 10 h cultivation at 37° C.): 12.5 µg/mL | MIC (Citrobacter diversus; 10 h cultivation at 37° C.): 25 µg/mL | MIC (Klebsiella pneumonia; 10 h cultivation at 37° C.): 12.5 µg/mL
